Experimental findings from patent US8637670B2, “Imidazo [4,5-C]quinoline derivatives and their use in the treatment of tumors and/or inflammation” (Piramal Enterprises Limited, priority 2009, dated 2014) are described below.

The subject of one assay is BT 549. In words: Cytotoxicity, propidium iodide assay, BT 549. The format is cell-based. As to conditions: Homo sapiens; Breast, BT 549, 48 hours treatment; read-out: IC50, C6d (BT 549). As to the method: (§1) The assay was designed as in the reference, Anticancer Drugs, 2002, 13, 1-8, the disclosure of which is incorporated by reference for the teaching of the assay.
(§2) Cells from cell lines as mentioned in the table given below were seeded at a density of 3000 cells/well in a white opaque 96-well plate. Following incubation at 37° C./5% CO2 for a period of 18-24 hours, the cells were treated with various concentrations (stock solution was prepared in DMSO and subsequent dilutions were made in media as per ATCC guidelines) of the compounds of Example 1-40 was for a period of 48 hours. At the end of treatment, the spent culture medium was discarded, the cells were washed with 1×PBS and 200 μl of 7 μg/ml propidium iodide was added to each well. The plates were frozen at −70° C. for at least 24 hours. For analysis, the plates were brought to RT, allowed to thaw and were read in PoleStar fluorimeter with the fluorescence setting. The percentage of viable cells in the non-treated set of wells was considered to be 100 and the percentage viability following treatment was calculated accordingly. IC50 values were calculated from graphs plotted using these percentages. Table 4 depicts the IC50 values of compounds of Example 1-40 in individual cell lines.
(§3) The abbreviations for the Cell Lines as used in Table 4 are: […]

The next assay relates to T47D. The assay can be described thus: Cytotoxicity, propidium iodide assay, T47D. The format is cell-based. To be noted: Homo sapiens, Breast, 48 hours treatment, read-out: IC50, C6e (T47D). As to the method:
as §1, §2, §3

Another assay relates to PANC 1. The assay can be described thus: Cytotoxicity, propidium iodide assay, PANC 1. In kind it is cell-based. As to conditions: Homo sapiens; Pancreatic, PANC 1, 48 hours treatment; read-out: IC50, C5a (PANC 1). As to the method:
as §1, §2, §3

The test system of another assay is PC3. The assay can be described thus: Cytotoxicity, propidium iodide assay, PC3. In kind it is cell-based. To be noted: Homo sapiens, PC-3; Prostate, PC3, 48 hours treatment; read-out: IC50, C2a (PC3). The method, boiled down: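 3000 cells/well; 18-24 h attachment at 37° C./5% CO2; compound 48 h; PBS wash; 7 μg/ml PI; freeze −70° C. ≥24 h; thaw to RT, fluorescence read; IC50 from % viability vs untreated.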

The next assay concerns MCF7. In words: Cytotoxicity, propidium iodide assay, MCF7. As to conditions: Homo sapiens; Breast, MCF7, 48 hours treatment; read-out: IC50, C6c (MCF7). The format is cell-based. The procedure:
as §1, §2, §3

A further assay concerns MDA MB 231. The assay can be described thus: Cytotoxicity, propidium iodide assay, MDA MB 231. The format is cell-based. To be noted: Homo sapiens; Breast, MDA MB 231, 48 hours treatment; read-out: IC50, C6a (MDA MB 231). The procedure:
as §1, §2, §3

The next assay has as its system IL-6. The assay can be described thus: Human monocyte assay, LPS-stimulated IL-6 (ELISA). In kind it is cell-based. To be noted: human monocytes, 1 μg/ml LPS, 5 hours. The method, boiled down: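 Adherent human PBMC-derived monocytes (2×10^4/well, cultured 48 h) were pretreated with compound or 0.5% DMSO vehicle for 30 min, then stimulated with 1 μg/ml E. coli 0111:B4 LPS for 5 h at 37 °C. Supernatant IL-6 and TNF-α were measured by ELISA; IC50 by nonlinear regression, with MTS toxicity on a parallel plate.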
In general terms: ELISA stands for enzyme-linked immunosorbent assay.

For the next assay, the target named is T1, PI3Kα kinase (Homo sapiens, UniProt P42336).
T1 construct: purchased Millipore, USA
In words: PI3Kα assay (32P incorporation into phosphatidylinositol, TLC densitometry). The format is biochemical. To be noted: for inhibition at 1 µM: At 1000 nM; for inhibition at 0.1 µM: At 100 nM. The method, boiled down: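 Human PI3Kα (20 ng) with 12.5 μg phosphatidylinositol, 10 μM ATP plus [γ-32P]ATP in 10 mM Hepes pH 7.5, 50 mM MgCl2; 20 min at 30° C. Lipids extracted in MeOH/chloroform, resolved by silica TLC, and 32P-labelled PI quantified by autoradiography densitometry.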

For another assay, the system named is U 87 MG. The assay can be described thus: Cytotoxicity, propidium iodide assay, U 87 MG. In kind it is cell-based. As to conditions: Homo sapiens, Glioblastoma, 48 hours treatment, read-out: IC50, C7b (U 87 MG). As to the method: as §1, §2, §3
A further assay has as its system BxPC3. The assay can be described thus: Cytotoxicity, propidium iodide assay, BxPC3. In kind it is cell-based. As to conditions: Homo sapiens, BXPC-3; Pancreatic, BxPC3, 48 hours treatment; read-out: IC50, C5c (BxPC3). As to the method: as §1, §2, §3

T1 sequence (P42336 whole entry): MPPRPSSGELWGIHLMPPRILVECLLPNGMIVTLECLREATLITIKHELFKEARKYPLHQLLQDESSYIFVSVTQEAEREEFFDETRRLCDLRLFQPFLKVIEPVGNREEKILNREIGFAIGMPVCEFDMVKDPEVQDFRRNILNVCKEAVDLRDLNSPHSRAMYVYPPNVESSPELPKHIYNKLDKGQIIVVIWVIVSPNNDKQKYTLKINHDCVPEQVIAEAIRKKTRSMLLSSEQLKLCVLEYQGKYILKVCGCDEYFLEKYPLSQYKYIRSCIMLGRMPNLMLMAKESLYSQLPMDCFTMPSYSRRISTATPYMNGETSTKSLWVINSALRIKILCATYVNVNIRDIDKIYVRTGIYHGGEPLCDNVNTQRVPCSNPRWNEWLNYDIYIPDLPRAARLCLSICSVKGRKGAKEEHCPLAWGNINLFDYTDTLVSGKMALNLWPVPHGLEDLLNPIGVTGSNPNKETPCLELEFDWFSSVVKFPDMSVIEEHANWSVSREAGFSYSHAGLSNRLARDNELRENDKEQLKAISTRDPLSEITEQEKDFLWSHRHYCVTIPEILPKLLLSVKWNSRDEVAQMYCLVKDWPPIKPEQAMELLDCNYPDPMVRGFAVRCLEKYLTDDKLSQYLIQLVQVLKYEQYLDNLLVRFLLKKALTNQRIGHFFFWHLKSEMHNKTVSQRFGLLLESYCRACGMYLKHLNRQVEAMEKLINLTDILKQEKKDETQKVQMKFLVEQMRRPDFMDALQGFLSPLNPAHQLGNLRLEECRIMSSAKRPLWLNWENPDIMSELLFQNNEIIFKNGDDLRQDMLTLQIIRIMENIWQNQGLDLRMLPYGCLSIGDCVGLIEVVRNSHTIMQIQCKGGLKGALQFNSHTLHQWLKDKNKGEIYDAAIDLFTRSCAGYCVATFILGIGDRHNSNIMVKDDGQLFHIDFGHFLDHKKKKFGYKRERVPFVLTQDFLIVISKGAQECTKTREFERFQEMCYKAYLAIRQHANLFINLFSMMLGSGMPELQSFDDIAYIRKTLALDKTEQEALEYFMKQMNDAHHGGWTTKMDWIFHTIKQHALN
T1 sequence (P27986 whole entry partner): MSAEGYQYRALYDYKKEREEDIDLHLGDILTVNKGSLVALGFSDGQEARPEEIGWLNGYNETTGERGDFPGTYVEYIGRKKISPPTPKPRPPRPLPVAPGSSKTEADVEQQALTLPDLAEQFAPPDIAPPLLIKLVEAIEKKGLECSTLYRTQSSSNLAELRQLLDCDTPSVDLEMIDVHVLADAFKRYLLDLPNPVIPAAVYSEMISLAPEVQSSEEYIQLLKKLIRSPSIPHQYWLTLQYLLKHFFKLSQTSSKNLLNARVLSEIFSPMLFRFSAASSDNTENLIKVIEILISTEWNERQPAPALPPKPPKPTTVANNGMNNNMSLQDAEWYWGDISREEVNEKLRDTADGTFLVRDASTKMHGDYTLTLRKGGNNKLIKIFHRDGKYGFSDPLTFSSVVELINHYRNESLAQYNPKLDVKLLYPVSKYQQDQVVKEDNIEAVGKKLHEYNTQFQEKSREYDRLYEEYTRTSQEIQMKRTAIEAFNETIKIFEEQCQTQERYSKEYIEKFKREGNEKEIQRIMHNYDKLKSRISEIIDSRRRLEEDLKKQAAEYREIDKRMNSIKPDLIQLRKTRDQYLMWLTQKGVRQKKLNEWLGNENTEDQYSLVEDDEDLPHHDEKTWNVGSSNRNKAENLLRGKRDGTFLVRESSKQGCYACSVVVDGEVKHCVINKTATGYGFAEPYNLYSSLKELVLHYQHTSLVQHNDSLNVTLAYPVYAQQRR

For `C/C=C/C(=O)n1c(=O)n(-c2ccc(C(C)(C)C#N)cc2)c2c3cc(Cl)ccc3ncc21` [Example 38, (E)-2-(4-(3-But-2-enoyl-8-chloro-2-oxo-2,3-dihydro-1H-imidazo[4,5-c]quinolin-1-yl)phenyl)-2-methylpropanenitrile], the half-maximal inhibitory concentration (IC50) with BT 549, in the assay on T47D, in the assay on PANC 1, in the assay on PC3, with MCF7 and in the assay with MDA MB 231 was not above 1000 nM in each case. Also, the IC50 (in general, the concentration needed to halve the response being measured) in the assay with IL-6 is not above 1000 nM. Further, at PI3Kα kinase, the inhibition – broadly, the change of the read-out against control, counted positive when it falls – at 1 µM lay in the range of 10 to 50%.

Consider `CC(C)(C#N)c1ccc(-n2c(=O)n(C(=O)c3ccccc3)c3cnc4ccc(Cl)cc4c32)cc1` [Example 37, 2-(4-(3-Benzoyl-8-chloro-2-oxo-2,3-dihydro-1H-imidazo[4,5-c]quinolin-1-yl)phenyl)-2-methylpropanenitrile], for which the results for the half-maximal inhibitory concentration (IC50) with PC3, in the assay with U 87 MG and in the assay with IL-6 were 1000 to 3000 nM, more than 3000 nM and not above 1000 nM, respectively. Also, on PI3Kα kinase, the inhibition at 0.1 µM is 10 to 50%.

For `C/C=C/C(=O)n1c(=O)n(-c2ccc(C(C)(C)C#N)cc2)c2c3cc(Br)ccc3ncc21` [Example 27, (E)-2-(4-(8-Bromo-3-but-2-enoyl-2-oxo-2,3-dihydro-1H-imidazo[4,5-c]quinolin-1-yl)phenyl)-2-methylpropanenitrile], the IC50 in the assay with BT 549, in the assay with T47D, in the assay on PANC 1, in the assay on PC3, in the assay on MCF7 and in the assay with MDA MB 231 was not above 1000 nM throughout. Also, the IC50 with IL-6 was not above 1000 nM. For the same compound, at PI3Kα kinase, the inhibition at 1 µM was 10 to 50%.

In the case of `CC(C)(C#N)c1ccc(-n2c(=O)n(C(=O)c3ccccc3)c3cnc4ccc(Br)cc4c32)cc1` [Example 30, 2-(4-(3-Benzoyl-8-bromo-2-oxo-2,3-dihydro-1H-imidazo[4,5-c]quinolin-1-yl)phenyl)-2-methylpropanenitrile], the IC50 in the assay with PANC 1 was 1000 to 3000 nM; in the assay on PC3, 1000 to 3000 nM; in the assay on BxPC3, not above 1000 nM; in the assay with IL-6 it was not above 1000 nM. In addition, the inhibition at 0.1 µM against PI3Kα kinase was more than 50%.

Take `Cc1cccc(S(=O)(=O)n2c(=O)n(-c3ccc(C(C)(C)C#N)cc3)c3c4cc(Br)ccc4ncc32)c1` [Example 3, 2-(4-(8-Bromo-2-oxo-3-(m-tolylsulfonyl)-2,3-dihydro-1H-imidazo[4,5-c]quinolin-1-yl)phenyl)-2-methylpropanenitrile]: the concentration for half-maximal inhibition (IC50) in the assay with PANC 1 is 1000 to 3000 nM; with PC3, not above 1000 nM; with U 87 MG, 1000 to 3000 nM; with BxPC3, not above 1000 nM; with IL-6, 1000 to 10000 nM. The same compound yielded an inhibition at 0.1 µM at PI3Kα kinase of 10 to 50%.
